Experimental data taken from ChEMBL document CHEMBL5154916, “Multiparameter Optimization of Naphthyridine Derivatives as Selective α5-GABAA Receptor Negative Allosteric Modulators” (J Med Chem, 2022).

Key:
[1] = Passive permeability in human Caco-2 cells assessed as permeability damage ratio at 10 uM by HPLC-UV analysis; format: ADME, cell-based; details: caco-2, 10 µM
[2] = molecular target: GABA-A receptor; alpha-1/beta-3/gamma-2 (Homo sapiens) (UniProt P14867+P18507+P28472); assay: Negative allosteric modulation activity at human recombinant alpha1beta3gamma2 GABAA receptor stably expressed in HEK293 cells assessed as modulation at alpha1 subunit at 10 uM by Patch clamp method; format: cell-based; details: filed as negative allosteric modulator
[3] = Metabolic stability in Wistar rat liver microsomes assessed as intrinsic clearance at 2.5 uM; format: ADME, Microsome; details: read-out: CLH
[4] = Metabolic stability in human liver microsomes assessed as intrinsic clearance at 2.5 uM; format: ADME, Microsome; details: read-out: CLH
[5] = Apparent permeability in human Caco-2 cells at 10 uM by HPLC-UV analysis; format: ADME, cell-based
[6] = molecular target: T1, GABA-A receptor; alpha-5/beta-3/gamma-2 (Homo sapiens, UniProt P18507+P28472+P31644); assay: Displacement of [3H]Ro151788 from human recombinant alpha5beta3gamma2 GABAA receptor stably expressed in HEK293 cell membrane assessed as inhibition constant by radioligand binding assay; format: cell membranes
T1 sequence (P18507 whole entry): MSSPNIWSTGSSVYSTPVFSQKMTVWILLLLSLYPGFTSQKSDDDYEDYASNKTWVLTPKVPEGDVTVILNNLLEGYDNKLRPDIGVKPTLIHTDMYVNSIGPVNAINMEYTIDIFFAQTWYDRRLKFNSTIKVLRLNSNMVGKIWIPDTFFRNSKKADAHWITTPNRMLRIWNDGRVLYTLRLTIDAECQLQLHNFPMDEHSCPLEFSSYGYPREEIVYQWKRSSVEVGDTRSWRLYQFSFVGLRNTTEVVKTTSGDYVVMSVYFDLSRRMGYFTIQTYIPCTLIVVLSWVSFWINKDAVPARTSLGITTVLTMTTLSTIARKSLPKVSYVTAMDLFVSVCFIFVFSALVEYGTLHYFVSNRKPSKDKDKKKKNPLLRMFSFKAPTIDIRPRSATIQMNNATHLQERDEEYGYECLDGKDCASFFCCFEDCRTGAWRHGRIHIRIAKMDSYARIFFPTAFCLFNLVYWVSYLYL
T1 sequence (P28472 whole entry): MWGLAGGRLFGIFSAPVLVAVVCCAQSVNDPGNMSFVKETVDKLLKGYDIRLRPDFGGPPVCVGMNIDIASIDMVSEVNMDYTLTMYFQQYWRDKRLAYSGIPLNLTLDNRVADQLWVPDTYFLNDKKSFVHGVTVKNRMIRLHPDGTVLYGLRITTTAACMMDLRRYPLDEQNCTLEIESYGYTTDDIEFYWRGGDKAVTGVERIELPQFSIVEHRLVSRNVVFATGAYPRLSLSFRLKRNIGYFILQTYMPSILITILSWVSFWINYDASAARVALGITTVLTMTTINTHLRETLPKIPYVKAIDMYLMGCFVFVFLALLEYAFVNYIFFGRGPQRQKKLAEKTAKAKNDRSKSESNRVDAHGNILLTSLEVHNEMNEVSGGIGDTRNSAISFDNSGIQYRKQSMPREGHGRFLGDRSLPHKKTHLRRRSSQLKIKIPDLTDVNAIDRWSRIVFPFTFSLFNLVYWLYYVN
T1 sequence (P31644 whole entry): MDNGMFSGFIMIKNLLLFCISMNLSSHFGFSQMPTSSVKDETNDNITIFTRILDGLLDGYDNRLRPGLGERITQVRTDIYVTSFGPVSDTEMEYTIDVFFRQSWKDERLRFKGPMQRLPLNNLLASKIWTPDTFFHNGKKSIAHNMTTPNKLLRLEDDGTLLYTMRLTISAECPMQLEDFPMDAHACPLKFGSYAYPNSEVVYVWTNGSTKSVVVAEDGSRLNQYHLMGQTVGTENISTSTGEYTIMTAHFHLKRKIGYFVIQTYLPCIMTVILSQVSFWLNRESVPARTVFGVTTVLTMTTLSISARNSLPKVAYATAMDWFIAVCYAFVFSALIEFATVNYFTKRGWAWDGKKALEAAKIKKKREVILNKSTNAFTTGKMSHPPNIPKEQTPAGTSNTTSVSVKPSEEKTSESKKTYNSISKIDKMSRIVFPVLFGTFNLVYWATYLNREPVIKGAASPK

[7] = molecular target: T2, GABA-A receptor; alpha-5/beta-3/gamma-2 (Homo sapiens) (UniProt P18507+P28472+P31644); assay: Negative allosteric modulation activity at human recombinant alpha5beta3gamma2 GABAA receptor stably expressed in HEK293 cells assessed as modulation at alpha5 subunit at 10 uM by Patch clamp method; format: cell-based
[8] = molecular target: T2, GABA-A receptor; alpha-5/beta-3/gamma-2 (Homo sapiens); assay: Negative allosteric modulation activity at human recombinant alpha5beta3gamma2 GABAA receptor stably expressed in HEK293 cells assessed as modulation at alpha5 subunit at 1 uM by Patch clamp method; format: cell-based; details: filed as negative allosteric modulator
[9] = molecular target: Voltage-gated inwardly rectifying potassium channel KCNH2 (Homo sapiens, UniProt Q12809); assay: Inhibition of hERG expressed in CHO cells stably at -80 mV holding potential by automated patch clamp method; format: toxicity, cell-based
Sequence of Voltage-gated inwardly rectifying potassium channel KCNH2 (Q12809 whole entry): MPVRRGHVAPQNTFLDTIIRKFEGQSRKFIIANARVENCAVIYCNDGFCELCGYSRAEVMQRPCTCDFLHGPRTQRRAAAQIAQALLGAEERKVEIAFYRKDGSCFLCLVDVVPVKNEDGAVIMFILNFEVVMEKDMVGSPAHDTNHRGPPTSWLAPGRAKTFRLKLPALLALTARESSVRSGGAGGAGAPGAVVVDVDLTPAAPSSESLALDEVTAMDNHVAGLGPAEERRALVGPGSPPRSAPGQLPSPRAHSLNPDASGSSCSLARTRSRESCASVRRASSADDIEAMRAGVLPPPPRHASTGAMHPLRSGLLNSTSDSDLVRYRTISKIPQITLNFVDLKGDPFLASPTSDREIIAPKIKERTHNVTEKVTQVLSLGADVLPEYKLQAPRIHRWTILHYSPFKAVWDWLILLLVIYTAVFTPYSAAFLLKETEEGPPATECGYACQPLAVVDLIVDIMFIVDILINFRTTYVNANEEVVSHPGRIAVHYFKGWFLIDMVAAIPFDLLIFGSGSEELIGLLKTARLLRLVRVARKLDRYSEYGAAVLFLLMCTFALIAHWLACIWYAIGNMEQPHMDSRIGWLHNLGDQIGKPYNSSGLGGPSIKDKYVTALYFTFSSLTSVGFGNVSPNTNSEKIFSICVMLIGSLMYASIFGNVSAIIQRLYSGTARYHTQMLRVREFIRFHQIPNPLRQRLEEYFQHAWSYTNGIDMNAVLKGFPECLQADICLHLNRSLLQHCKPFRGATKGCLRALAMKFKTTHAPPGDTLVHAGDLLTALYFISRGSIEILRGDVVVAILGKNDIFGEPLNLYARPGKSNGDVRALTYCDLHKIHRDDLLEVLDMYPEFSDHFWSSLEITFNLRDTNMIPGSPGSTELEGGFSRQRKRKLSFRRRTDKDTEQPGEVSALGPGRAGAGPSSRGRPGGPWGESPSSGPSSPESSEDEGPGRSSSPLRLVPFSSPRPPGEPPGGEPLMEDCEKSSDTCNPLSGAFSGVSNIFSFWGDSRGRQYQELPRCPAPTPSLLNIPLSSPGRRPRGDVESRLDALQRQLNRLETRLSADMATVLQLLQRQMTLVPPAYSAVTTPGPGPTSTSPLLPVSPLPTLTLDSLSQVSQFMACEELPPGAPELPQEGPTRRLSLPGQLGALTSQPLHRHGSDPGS

[10] = AUC (0 to infinity) in Wistar rat total plasma at 1 mg/kg, po by HPLC-MS/MS analysis; format: ADME, organism-based; design: time infinity, dose 1 mg/kg, route po
[11] = Cmax in Wistar rat total plasma at 1 mg/kg, po by HPLC-MS/MS analysis; format: ADME, organism-based; design: dose 1 mg/kg, route po
[12] = Clearance in Wistar rat plasma at 1 mg/kg, iv by HPLC-MS/MS analysis; format: ADME, organism-based
[13] = Half life in Wistar rat total plasma at 1 mg/kg, po by HPLC-MS/MS analysis; format: ADME, organism-based
[14] = Bioavailability in Wistar rat total plasma at 1 mg/kg, iv by HPLC-MS/MS analysis; format: ADME, organism-based
[15] = Volume of distribution in Wistar rat plasma at 1 mg/kg, iv by HPLC-MS/MS analysis; format: ADME, organism-based
[16] = Ratio of drug level in brain to plasma in Wistar rat at 3 mg/kg, po measured at 1.5 hr post dose; format: ADME, organism-based; details: brain and plasma, read-out: BPR
[17] = Tmax in Wistar rat total plasma at 1 mg/kg, po by HPLC-MS/MS analysis; format: ADME, organism-based
[18] = Half life in Wistar rat total plasma at 1 mg/kg, iv by HPLC-MS/MS analysis; format: ADME, organism-based
[19] = Ratio of drug level in brain to plasma in Wistar rat at 1 mg/kg, iv by HPLC-MS/MS analysis; format: ADME, organism-based; details: brain and plasma, read-out: BPR
[20] = AUC (0 to infinity) in Wistar rat total plasma at 1 mg/kg, iv by HPLC-MS/MS analysis; format: ADME, organism-based; design: time infinity, dose 1 mg/kg, route iv
[21] = filed as negative allosteric modulator

| Structure (SMILES) | Activity [2] | microsomal CLint at 2.5 µM [3] | microsomal CLint at 2.5 µM [4] | Papp at 10 µM [5] | Ki [6] | Activity [7, 21] | Activity [8] | Kp at 1.5 h [16] | Ratio [1] | IC50 [9] | further results |
| --- | --- | --- | --- | --- | --- | --- | --- | --- | --- | --- | --- |
| CC(=O)N1Cc2ccc(OCc3c(C)nnn3-c3ccc(F)cc3)nc2C1 | -7% | 25 µL/min/mg | 9 µL/min/mg | 54.5 ×10⁻⁶ cm/s | 3.2 nM | -30% | -19% | 0.38 | 0.9 | 30000 nM | AUC(0-inf) [10]: 43.7 ng·h/mL; Cmax [11]: 47.6 ng/mL; clearance [12]: 55.5 mL/min/kg; half-life [13]: 51.6 min; bioavailability [14]: 14.5%; Vd [15]: 1.09 L/kg; Tmax [17]: 30 min; half-life [18]: 13.8 min; Kp [19]: 0.38; AUC(0-inf) [20]: 301 ng·h/mL |
| Cc1nnn(-c2ccc(F)cc2)c1COc1ccc2c(n1)CCN(C(=O)C1CCOC1)C2 (stereo not drawn) | -7% | 29 µL/min/mg | 13 µL/min/mg | 44.6 ×10⁻⁶ cm/s | 42 nM | -39% | -34% | 0.21 | 1.1 | 30000 nM | – |
| Cc1nnn(-c2ccc(F)cc2)c1COc1ccc2c(n1)CCN(C(=O)C1CCCO1)C2 (stereo not drawn) | -8% | 46 µL/min/mg | 15 µL/min/mg | 47.1 ×10⁻⁶ cm/s | 39 nM | -43% | -30% | 0.31 | 0.92 | > 30000 nM | – |

Continued, in another order:

| Activity [2] | microsomal CLint at 2.5 µM [3] | microsomal CLint at 2.5 µM [4] | Papp at 10 µM [5] | Ki [6] | Activity [7, 21] | Activity [8] | Kp at 1.5 h [16] | Structure (SMILES) | Ratio [1] | IC50 [9] | further results |
| --- | --- | --- | --- | --- | --- | --- | --- | --- | --- | --- | --- |
| -12% | 89 µL/min/mg | 7 µL/min/mg | 49.3 ×10⁻⁶ cm/s | 7.7 nM | -46% | -33% | – | Cc1onc(-c2ccc(F)cc2)c1COc1ccc2c(n1)CCN(CCS(C)(=O)=O)C2=O | 1.1 | 1100 nM | – |
| 0% | 26 µL/min/mg | 18 µL/min/mg | 52.8 ×10⁻⁶ cm/s | 28 nM | -36% | -25% | 0.45 | CC(=O)N1CCc2nc(OCc3c(C)nnn3-c3ccc(F)cc3)ccc2C1 | 0.74 | > 30000 nM | AUC(0-inf) [10]: 20.4 ng·h/mL; Cmax [11]: 21.4 ng/mL; clearance [12]: 77.9 mL/min/kg; half-life [13]: 42.6 min; bioavailability [14]: 9.4%; Vd [15]: 1.36 L/kg; Tmax [17]: 30 min; half-life [18]: 12 min; Kp [19]: 0.46; AUC(0-inf) [20]: 218 ng·h/mL |
| -3% | 11 µL/min/mg | 4 µL/min/mg | 0.33 ×10⁻⁶ cm/s | 38 nM | -35% | -31% | – | Cc1nnn(-c2ccc(F)cc2)c1COc1ccc2c(n1)CCN(C(=O)NC1CC(=O)N(C)C1)C2 (stereo not drawn) | 134 | > 30000 nM | – |
| -16% | 9 µL/min/mg | 1 µL/min/mg | 22 ×10⁻⁶ cm/s | 55 nM | – | -41% | 0.02 | Cc1nnn(-c2ccc(F)cc2)c1COc1ccc2c(n1)CCN(CCS(C)(=O)=O)C2=O | 3.2 | 30000 nM | Activity [7]: -51% |
